Experimental data as given in ChEMBL document CHEMBL4308844, “Allosteric Modulation of Class A GPCRs: Targets, Agents, and Emerging Concepts” (J Med Chem, 2018).

Assays:
[1] = biological target: T1, Muscarinic acetylcholine receptor M4 (Rattus norvegicus, UniProt P08485); test: Positive allosteric modulation of rat M4 AchR
T1 sequence (P08485 whole entry): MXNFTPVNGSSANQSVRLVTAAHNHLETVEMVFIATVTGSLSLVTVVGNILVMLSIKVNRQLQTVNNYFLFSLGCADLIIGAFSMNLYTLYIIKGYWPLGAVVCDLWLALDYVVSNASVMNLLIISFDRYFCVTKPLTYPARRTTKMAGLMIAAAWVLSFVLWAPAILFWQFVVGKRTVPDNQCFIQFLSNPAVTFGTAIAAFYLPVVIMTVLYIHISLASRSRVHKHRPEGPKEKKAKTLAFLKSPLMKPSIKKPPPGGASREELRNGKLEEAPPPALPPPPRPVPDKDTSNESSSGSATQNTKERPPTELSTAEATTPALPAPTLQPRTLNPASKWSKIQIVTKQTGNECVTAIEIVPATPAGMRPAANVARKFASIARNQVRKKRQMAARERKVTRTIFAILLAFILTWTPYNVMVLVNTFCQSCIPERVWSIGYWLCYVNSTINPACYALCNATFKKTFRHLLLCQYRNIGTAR

[2] = biological target: T2, Muscarinic acetylcholine receptor M4 (Homo sapiens, UniProt P08173); test: Positive allosteric modulation of human M4 AchR
T2 sequence (P08173 whole entry): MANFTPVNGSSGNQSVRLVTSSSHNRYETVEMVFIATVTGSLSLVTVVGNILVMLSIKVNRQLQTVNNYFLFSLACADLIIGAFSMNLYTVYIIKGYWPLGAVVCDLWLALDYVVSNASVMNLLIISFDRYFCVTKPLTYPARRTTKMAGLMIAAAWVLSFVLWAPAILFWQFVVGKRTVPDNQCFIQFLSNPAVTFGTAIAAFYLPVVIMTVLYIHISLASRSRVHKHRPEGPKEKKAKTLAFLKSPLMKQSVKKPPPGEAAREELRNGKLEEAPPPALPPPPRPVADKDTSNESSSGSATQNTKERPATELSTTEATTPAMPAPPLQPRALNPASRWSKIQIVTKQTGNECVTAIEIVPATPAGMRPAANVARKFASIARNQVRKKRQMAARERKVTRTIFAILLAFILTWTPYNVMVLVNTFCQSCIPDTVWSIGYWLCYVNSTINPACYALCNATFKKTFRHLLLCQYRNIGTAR

[3] = biological target: T3, Muscarinic acetylcholine receptor M1 (Homo sapiens, UniProt P11229); test: Positive allosteric modulation of M1 AchR (unknown origin)
T3 sequence (P11229 whole entry): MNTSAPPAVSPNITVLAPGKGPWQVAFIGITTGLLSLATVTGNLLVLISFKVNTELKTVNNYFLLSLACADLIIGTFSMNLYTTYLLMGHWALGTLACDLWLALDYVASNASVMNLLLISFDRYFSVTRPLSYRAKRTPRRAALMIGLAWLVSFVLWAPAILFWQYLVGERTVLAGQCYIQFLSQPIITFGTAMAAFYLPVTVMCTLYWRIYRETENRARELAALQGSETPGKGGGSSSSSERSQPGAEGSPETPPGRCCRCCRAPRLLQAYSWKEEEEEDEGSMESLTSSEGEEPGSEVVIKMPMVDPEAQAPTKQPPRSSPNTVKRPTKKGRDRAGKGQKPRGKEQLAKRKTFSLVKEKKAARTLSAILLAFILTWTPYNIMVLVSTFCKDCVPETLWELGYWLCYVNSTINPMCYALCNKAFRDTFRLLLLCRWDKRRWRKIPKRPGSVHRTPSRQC

[4] = biological target: T4, Muscarinic acetylcholine receptor M4 (Homo sapiens) (UniProt P08173); test: Positive allosteric modulation of human M4 AchR expressed in CHO cells assessed as increase in acteylcholine-induced calcium mobilization by FLIPR assay; type: functional, cell-based
T4 sequence (whole entry): T2 sequence (P08173 whole entry)

[5] = biological target: D(2) dopamine receptor (Homo sapiens) (UniProt P14416); test: Negative allosteric modulation of D2R (unknown origin) assessed as decrease in [3H]NPA binding at 1 uM relative to control
[6] = biological target: D(2) dopamine receptor (Homo sapiens) (UniProt P14416); test: Negative allosteric modulation of D2R (unknown origin) assessed as decrease in [3H]NPA binding at 10 uM relative to control
[7] = biological target: T5, 5-hydroxytryptamine receptor 2C (Homo sapiens) (UniProt P28335); test: Positive allosteric modulation of 5-HT2C receptor (unknown origin) assessed as increase in 5-HT-induced displacement of [3H]mesulergine by measuring fold reduction in 5-HT Ki at 20 uM relative to control
T5 sequence (whole entry): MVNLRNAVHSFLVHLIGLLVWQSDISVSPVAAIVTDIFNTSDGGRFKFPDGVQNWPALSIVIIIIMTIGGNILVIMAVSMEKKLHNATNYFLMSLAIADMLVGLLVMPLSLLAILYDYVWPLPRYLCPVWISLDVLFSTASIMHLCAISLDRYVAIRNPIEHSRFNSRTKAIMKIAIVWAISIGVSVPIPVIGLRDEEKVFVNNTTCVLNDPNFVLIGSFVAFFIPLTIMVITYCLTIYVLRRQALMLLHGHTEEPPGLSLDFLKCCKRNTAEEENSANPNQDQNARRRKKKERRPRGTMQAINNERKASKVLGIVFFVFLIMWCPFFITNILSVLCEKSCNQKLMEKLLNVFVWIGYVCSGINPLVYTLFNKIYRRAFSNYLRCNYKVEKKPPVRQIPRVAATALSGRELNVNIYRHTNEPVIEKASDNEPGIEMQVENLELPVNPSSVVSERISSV

[8] = biological target: T5, 5-hydroxytryptamine receptor 2C (Homo sapiens); test: Agonist activity at 5-HT2C receptor (unknown origin) expressed in HEK293 cells assessed as IP3 release at 10 uM relative to 5-HT maximal response
[9] = biological target: T6, C-X-C chemokine receptor type 3 (Homo sapiens) (UniProt P49682); test: Inhibition of [3H]RAMX3 binding to CXCR3 (unknown origin) relative to control; conditions: concentration not given here
T6 sequence (whole entry): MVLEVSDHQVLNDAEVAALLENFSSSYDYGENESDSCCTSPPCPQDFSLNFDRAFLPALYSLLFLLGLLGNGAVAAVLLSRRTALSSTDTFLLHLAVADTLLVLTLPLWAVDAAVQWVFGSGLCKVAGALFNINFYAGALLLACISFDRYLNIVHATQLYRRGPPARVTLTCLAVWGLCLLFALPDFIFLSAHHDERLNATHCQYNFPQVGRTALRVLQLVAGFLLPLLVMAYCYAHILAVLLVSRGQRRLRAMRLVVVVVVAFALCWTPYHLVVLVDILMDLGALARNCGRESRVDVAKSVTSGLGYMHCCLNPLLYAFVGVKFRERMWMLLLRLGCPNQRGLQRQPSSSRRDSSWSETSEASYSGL

[10] = biological target: Cannabinoid receptor 1 (Homo sapiens) (UniProt P21554); test: Positive allosteric modulation of human CB1R assessed as potentiation of CP55940-induced calcium mobilization at […] by cell based assay relative to control; type: functional
[11] = biological target: Cannabinoid receptor 1 (Mus musculus) (UniProt P47746); test: Positive allosteric modulation of CB1R in MF1 mouse brain membranes assessed as increase in anandamide-stimulated [35S]GTPgammaS binding after 60 mins relative to control; type: functional, cell membranes
[12] = biological target: Cannabinoid receptor 1 (Mus musculus) (UniProt P47746); test: Positive allosteric modulation of CB1R in MF1 mouse brain membranes assessed as increase in [3H]WIN55212-2 binding after 60 mins relative to control; type: cell membranes
[13] = biological target: Cannabinoid receptor 1 (Mus musculus) (UniProt P47746); test: Positive allosteric modulation of CB1R in MF1 mouse brain membranes assessed as increase in [3H]CP55940 binding after 60 mins relative to control; type: cell membranes
[14] = biological target: T7, Muscarinic acetylcholine receptor M5 (Homo sapiens) (UniProt P08912); test: Positive allosteric modulation of M5 AchR (unknown origin) assessed as increase in acetylcholine-induced response relative to control
T7 sequence (whole entry): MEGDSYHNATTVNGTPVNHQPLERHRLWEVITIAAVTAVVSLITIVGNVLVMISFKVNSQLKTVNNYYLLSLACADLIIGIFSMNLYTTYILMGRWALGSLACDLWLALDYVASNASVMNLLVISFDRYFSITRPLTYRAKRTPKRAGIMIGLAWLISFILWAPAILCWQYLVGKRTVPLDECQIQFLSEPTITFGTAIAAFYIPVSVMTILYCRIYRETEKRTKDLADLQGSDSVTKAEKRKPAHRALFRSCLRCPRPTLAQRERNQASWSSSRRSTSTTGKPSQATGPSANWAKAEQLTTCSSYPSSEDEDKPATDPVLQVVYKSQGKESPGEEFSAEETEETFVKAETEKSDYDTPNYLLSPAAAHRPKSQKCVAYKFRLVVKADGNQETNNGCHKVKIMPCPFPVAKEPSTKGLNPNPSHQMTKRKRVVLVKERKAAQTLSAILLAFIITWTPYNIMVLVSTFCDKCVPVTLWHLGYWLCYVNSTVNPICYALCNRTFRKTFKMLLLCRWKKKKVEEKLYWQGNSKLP

[15] = biological target: T8, Substance-K receptor (Homo sapiens) (UniProt P21452); test: Negative allosteric modulation of NK2 receptor (unknown origin) assessed as decrease in agonist-induced cAMP production at 10 uM by cell based FRET assay relative to control; type: functional
T8 sequence (whole entry): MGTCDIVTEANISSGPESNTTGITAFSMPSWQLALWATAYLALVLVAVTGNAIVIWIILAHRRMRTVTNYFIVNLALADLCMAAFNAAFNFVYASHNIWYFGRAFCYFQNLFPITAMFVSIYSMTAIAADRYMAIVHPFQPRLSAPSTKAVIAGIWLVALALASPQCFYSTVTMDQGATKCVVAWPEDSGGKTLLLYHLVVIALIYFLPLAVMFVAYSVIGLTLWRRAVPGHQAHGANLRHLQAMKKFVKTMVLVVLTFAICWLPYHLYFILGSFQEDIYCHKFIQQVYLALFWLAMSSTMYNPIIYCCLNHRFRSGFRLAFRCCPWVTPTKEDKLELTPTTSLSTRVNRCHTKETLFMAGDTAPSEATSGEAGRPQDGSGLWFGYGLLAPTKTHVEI

[16] = biological target: T9, C-X-C chemokine receptor type 1 (Homo sapiens, UniProt P25024); test: Inhibition of CXCR1 (unknown origin)
T9 sequence (P25024 whole entry): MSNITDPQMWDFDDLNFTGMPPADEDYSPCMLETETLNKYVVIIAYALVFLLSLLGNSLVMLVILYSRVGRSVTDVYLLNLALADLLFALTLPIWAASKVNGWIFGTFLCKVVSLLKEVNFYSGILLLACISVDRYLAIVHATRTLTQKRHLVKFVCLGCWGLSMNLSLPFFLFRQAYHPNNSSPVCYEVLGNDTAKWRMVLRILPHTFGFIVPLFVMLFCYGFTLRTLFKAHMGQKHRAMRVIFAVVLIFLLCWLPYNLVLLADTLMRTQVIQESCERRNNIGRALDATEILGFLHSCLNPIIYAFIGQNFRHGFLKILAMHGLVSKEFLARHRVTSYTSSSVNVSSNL

[17] = biological target: T10, C-X-C chemokine receptor type 2 (Homo sapiens, UniProt P25025); test: Inhibition of CXCR2 (unknown origin)
T10 sequence (P25025 whole entry): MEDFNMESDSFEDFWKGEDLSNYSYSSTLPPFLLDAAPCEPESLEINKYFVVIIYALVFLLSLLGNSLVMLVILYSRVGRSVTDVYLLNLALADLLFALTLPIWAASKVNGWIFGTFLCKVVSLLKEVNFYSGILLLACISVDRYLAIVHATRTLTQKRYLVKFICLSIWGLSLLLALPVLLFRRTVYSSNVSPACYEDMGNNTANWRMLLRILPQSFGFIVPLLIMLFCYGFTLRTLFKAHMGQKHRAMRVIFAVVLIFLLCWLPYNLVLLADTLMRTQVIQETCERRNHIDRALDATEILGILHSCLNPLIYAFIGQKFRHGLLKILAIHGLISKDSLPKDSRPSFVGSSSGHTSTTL

D(2) dopamine receptor (Homo sapiens), sequence (P14416 whole entry): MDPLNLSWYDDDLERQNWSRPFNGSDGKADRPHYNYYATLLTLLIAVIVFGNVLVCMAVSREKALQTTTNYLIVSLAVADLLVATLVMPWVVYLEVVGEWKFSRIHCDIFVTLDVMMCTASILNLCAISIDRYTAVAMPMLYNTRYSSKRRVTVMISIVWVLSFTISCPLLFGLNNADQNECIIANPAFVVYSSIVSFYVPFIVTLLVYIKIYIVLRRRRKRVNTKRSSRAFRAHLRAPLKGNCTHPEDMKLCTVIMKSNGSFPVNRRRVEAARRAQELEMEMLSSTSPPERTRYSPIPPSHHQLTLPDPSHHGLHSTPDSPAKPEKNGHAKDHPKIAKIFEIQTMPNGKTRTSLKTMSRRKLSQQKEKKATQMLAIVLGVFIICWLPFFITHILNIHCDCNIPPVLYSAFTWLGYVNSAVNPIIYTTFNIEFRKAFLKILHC
Cannabinoid receptor 1 (Mus musculus), sequence (P47746 whole entry): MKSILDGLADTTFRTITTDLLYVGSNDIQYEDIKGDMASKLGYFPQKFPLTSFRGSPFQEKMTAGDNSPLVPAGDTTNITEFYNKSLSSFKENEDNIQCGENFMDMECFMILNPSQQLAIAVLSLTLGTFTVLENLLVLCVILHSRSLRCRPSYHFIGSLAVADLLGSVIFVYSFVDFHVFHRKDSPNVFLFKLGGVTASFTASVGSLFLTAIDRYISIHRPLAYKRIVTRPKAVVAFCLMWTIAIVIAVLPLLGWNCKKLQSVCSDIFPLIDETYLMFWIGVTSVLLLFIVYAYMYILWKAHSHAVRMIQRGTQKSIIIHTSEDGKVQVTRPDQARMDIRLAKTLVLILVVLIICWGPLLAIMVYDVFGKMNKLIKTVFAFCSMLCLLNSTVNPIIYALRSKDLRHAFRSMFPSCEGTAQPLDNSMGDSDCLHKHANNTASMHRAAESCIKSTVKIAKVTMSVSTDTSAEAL
Cannabinoid receptor 1 (Homo sapiens), sequence (P21554 whole entry): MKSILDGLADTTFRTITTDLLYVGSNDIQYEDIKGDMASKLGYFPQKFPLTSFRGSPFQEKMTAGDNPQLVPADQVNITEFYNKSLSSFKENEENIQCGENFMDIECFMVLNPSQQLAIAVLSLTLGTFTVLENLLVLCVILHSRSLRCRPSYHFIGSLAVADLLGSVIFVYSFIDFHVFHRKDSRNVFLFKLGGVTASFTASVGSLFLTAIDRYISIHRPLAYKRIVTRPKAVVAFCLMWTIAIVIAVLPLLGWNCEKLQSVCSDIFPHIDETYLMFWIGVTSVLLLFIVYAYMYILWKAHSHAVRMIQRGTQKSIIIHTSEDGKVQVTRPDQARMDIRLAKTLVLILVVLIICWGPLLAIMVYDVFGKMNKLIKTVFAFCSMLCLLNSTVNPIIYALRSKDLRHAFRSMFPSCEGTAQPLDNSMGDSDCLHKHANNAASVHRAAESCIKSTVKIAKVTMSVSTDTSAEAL

Cc1cc(OCc2ccncc2)nc2sc(C(=O)NCc3cccc(F)c3F)c(N)c12 gave an EC50 [1] of 2400 nM and an EC50 [2] of 95 nM.
COc1ccc(Cn2cc(C(=O)N[C@H]3CCCC[C@@H]3O)c3ncccc32)cc1 was tested, and the EC50 [3] was 1800 nM.
COc1nc2sc(C(=O)NC3CC3)c(N)c2c(C)c1Cl showed a Kb [4] of 200 nM.
CC1(C)S[C@@H]2CC[C@]3(CCCN3C(=O)[C@@H]3CCCN3)C(=O)N2[C@H]1C(N)=O was tested, and the fold change (FC) [5] was 2.7 and the fold change (FC) [6] was 2.8.
CCCCCCCCCCC[C@@H]1CCN[C@H](C(=O)N[C@@H]([C@H]2O[C@H](SC)[C@H](O)[C@@H](O)[C@H]2O)[C@H](C)Cl)C1 was tested, and the fold change (FC) [7] was 25 and the Emax [8] was < 71%.
Compound CCOc1ccc(-n2c(C(C)N(CC3CCN(Cc4ccc(C5(C(F)(F)F)N=N5)cc4)CC3)C(=O)Cc3ccc(F)c(C(F)(F)F)c3)nc3ncccc3c2=O)cc1 (stereo not given) has an inhibition [9] of 80%.
In the case of CC1(C)S[C@@H]2CC[C@]3(CCCN3C(=O)[C@@H]3CCCN3)C(=O)N2[C@@H]1C(N)=O, the fold change (FC) [5] is reported as 2.7 and the fold change (FC) [6] is reported as 2.8.
With Cc1ccc([C@H]2CC3CCC([C@H]2c2cc(-c4ccc(Cl)cc4)no2)N3C)cc1 (stereo not given in full) the Emax [10] was 36%.
Cc1ccc2c(C(C[N+](=O)[O-])c3cccs3)c(-c3ccccc3)[nH]c2c1 (stereo not given) gave an Activity [11] of 40%, an Emax [12] of 225% and an Emax [13] of 207%.
Work on CCN(Cc1ccccc1C(F)(F)F)C(=O)C1CCN(S(=O)(=O)c2ccc3[nH]ncc3c2)CC1 yielded a fold change (FC) [14] of 9.3.
For N#CCN(Cc1ccccc1)Cc1ccc2ccccc2c1, the inhibition [15] was 30%.
Cc1cc(NC(=O)CS(=O)(=O)c2cn(Cc3ccc(-c4cnn(C)c4)nc3)c3cc(F)cc(F)c23)no1 gave an EC50 [3] of 310 nM.
For C[C@@H](C(=O)NS(C)(=O)=O)c1ccc(OS(=O)(=O)C(F)(F)F)cc1, the IC50 [16] was 0.1 nM and the IC50 [17] was 0.1 nM.
